Consider 1 molecule from patent US4551538A, “Phenylpyrazolidine acetic acid derivatives” (American Home Products Corporation, priority 1984, dated 1985).

The test system of assay [1] is arachidonic acid lipoxygenase oxidation product 5-HETE. Nature of the assay: inhibition of 5-HETE synthesis by rat glycogen-elicited polymorphonuclear leukocytes. It counts as cell-based, rat (Wistar). The following applies: Leukocyte; rat PMN, A23187 10 μM, [14C] arachidonic acid; read-out: 50% Inhibitory Concentration of (IC50) 5-HETE. As for the experimental part: The assay of this Example measures the ability of the compounds of the invention to inhibit the synthesis of 5-HETE by rat glycogen-elicited polymorphonuclear leukocytes.
The assay is carried out as follows:
(§1) Peritoneal PMN are obtained from female Wistar rats (150-250 g) that received an i.p. injection of 6% glycogen (10 ml). After 24 hours, rats are killed by CO2 asphyxiation and peritoneal cells are harvested by peritoneal lavage using Ca^++ and Mg^++ free Hanks' balanced salt solution (HBSS). The peritoneal exudate is centrifuged at 400 g for 10 minutes. After centrifugation, the lavaged fluid is removed and the cell pellet is resuspended in HBSS containing Ca^++ and Mg^++ and 10 mM L-cysteine at a concentration of 2×10^7 cells/ml. To 1 ml portions of cell suspension, test drugs or vehicle are added and incubated at 37° C. for 10 minutes. Following this preincubation, the calcium ionophore (10 μM), A23187, is added together with 0.5 μCi [^14 C] arachidonic acid and further incubated for 10 minutes. The reaction is stopped by the addition of ice cold water (3 ml) and acidifying to pH 3.5. Lipoxygenase products are then extracted twice into diethyl ether. The pooled ether extracts are evaporated to dryness under nitrogen and the residue is redissolved in a small volume of methanol and spotted on aluminum backed pre-coated thin layer chromatographic plates. The samples are then co-chromatographed with authentic reference 5-HETE, in the solvent system--hexane:ether:acetic acid (50:50:3). After chromatography, the areas associated with 5-HETE standard are identified by autoradiography, cut out and quantitated by liquid scintillation.
(§2) Results are expressed as % inhibition of [^14 C]5-HETE synthesis. [formula]

The test system of assay [2] is arachidonic acid cyclooxygenase oxidation product PGE2. Nature of the assay: inhibition of PGE2 synthesis by rat polymorphonuclear leukocytes. It counts as cell-based, rat (Wistar). The settings on record: Leukocyte; rat PMN, A23187 10 μM, [14C] arachidonic acid; read-out: 50% Inhibitory Concentration (IC50), PGE2. As to the method:
as §1, §2
However, in order to determine cyclooxygenase activity, the samples are cochromatographed with authentic reference PGE2 in the solvent system ethyl acetate:formic acid (80:1) and the upper phase of ethyl acetate:isoctane:acetic acid:water (110:50:20:100). After chromatography, the areas associated with PGE2 standard are identified by autoradiography, cut out and quantitated by liquid scintillation techniques.

Assay [3] relates to acute inflammatory response (carrageenan rat paw edema). The assay can be described thus: carrageenan rat paw edema test. It is filed as in vivo, rat (Sprague-Dawley). The settings on record: Rattus norvegicus, po, 3 h; perorally, 1 h prior to carrageenan; read-out: ED50, paw edema. As to the method:
In this test, male Sprague-Dawley (Charles River) rats weighing 140-180 gm, in groups of 6 animals, are injected subcutaneously in the right paw with 0.1 ml of 1% carrageenan at zero time. Mercury plethysmographic readings (ml) of the paw are made at zero time and 3 hours later. Drugs are suspended or dissolved in 0.5% methylcellulose and given perorally one hour prior to carrageenan. The increase in paw volume (edema in ml) produced by the inflammatory agent, carrageenan, is measured.
Unpaired Student's t-test is used to determine statistical significance.
A general note: In the carrageenan paw model, swelling and tenderness develop within hours.

Assay [4] concerns AA-induced mouse ear edema. Nature of the assay: arachidonic acid (AA)-induced murine ear edema test. It is filed as in vivo, mouse (Swiss Webster). An excerpt: (§3) The ability of the compounds of the invention to inhibit the lipoxygenase and cyclooxygenase pathways of arachidonic acid is examined in the in vivo arachidonic acid (AA)-/12-O-tetradecanoylphorbol acetate (TPA)-induced murine ear edema test.
(§4) According to this test, Swiss Webster female mice (Buckshire), approximately 8 weeks old, are placed into plastic boxes in groups of six. Eight groups of mice receive AA topically on the right ear, and another 8 groups receive TPA topically on the right ear. AA and TPA are dissolved in acetone at concentrations of 100 mg/ml and 100 μg/ml respectively. The phlogistics are applied to the right ear by the means of an automatic pipet. Volumes of 10 μl are applied to the inner and outer surfaces of the ear. Each mouse receives either 2 mg/ear AA or 4 μg/ear TPA. The left ear (control) receives acetone delivered in the same manner. Oral and topical dosing regimens are as follows: (1) drugs are given 30 minutes prior to AA treatment, and (2) drugs are given 30 minutes after treatment with TPA.
(§5) Measurements are taken with Oditest calipers, 0-10 mm with 0.01 graduations. The right and left ears are measured after 1 hour AA-induced inflammation and 4 hours after TPA-induced inflammation.
(§6) The difference between right and left ear thickness is calculated and the significance is determined by a one way analysis of variance with Dunnett's comparisons to control (P=0.05). Drug effects are expressed as a percent change from control values: [formula]

Assay [5] concerns TPA-induced mouse ear edema. The assay can be described thus: 12-O-tetradecanoylphorbol acetate (TPA)-induced murine ear edema test. It counts as in vivo, mouse (Swiss Webster).
Description: as §3, §4, §5, §6

The test system of assay [6] is urate-induced canine synovitis. Nature of the assay: urate-induced canine synovitis test. It counts as in vivo, dog (mongrel). The following applies: Canis lupus familiaris; oral, 2 h after urate; read-out: Oral ED50. As to the method:
In this procedure, healthy mongrel dog of either sex weighing between 14-20 kg are adapted to a measuring platform. […] A Hewlett Packard 75C computer then converts voltage into kilogram units (mean pressure reading for 1 minute). This control pressure represents the 100% value in this procedure. Synovitis is induced by injecting 5 mg of sodium urate crystals (5-15μ in length) in 1 ml of 0.9% saline solution into the synovial space of the right or left knee. Readings are taken at 1, 2, 2.5, 3, 3.5, 4, 4.5 and 5 hours after urate administration and calculated as a percentage of control hind paw pressure. […] Dogs are used only once in these experiments to prevent tolerance.
Each dog is placed on the pressure measuring apparatus with its left or right hind paw centered above the load cell, and pressure readings are recorded for one minute. Two or three control readings are averaged and represent control paw pressure. Single pressure readings are taken after sodium urate injection.
Drug effects are expressed as a percentage of control paw pressure which is calculated as follows:
Test reading/Control reading×100
Test reading=Pressure measurement after sodium urate injection and drug or no drug (blank capsule).
Control reading=Mean pressure measurement before sodium urate injection.
A one-way analysis of variance with Dunnett's comparisons to control (α=0.05 and 0.01) was used to determine statistical significance.

For assay [7], the system named is phenylbenzoquinone-induced writhing. Nature of the assay: phenylbenzoquinone-induced writhing test. It counts as in vivo, mouse (CF-1). The following applies: 200 mg/kg; Control = 4.0. As to the method: In this procedure, test compound or vehicle is administered at various doses to ten male CF-1 mice, weighing 20-25 g, per dose level. The animals then receive intraperitoneal injection with 0.25 ml of the writhing agonist (a 0.02% solution of benzoquinone) 5 minutes before the beginning of a pre-selected, 10-minute observation period. Typical observation periods include 10 to 20, 25 to 35, 40 to 50 and 55 to 65 minutes following administration of the test compound. The mice are observed during the observation period and the total numbers of writhes are determined for each mouse.

Assay [8] has as its system cyclooxygenase. The settings on record: background statement; cited from earlier work.
Assay [9] relates to lipoxygenase. The following applies: background statement; cited from earlier work.

On to `O=C1CCN(c2ccccc2)N1` [phenidone, 1-phenyl-3-pyrazolidone, reference compound], for which the IC50 in [1] was 12 µM; in assay [2] it was over 100 µM. Further, the ED50 in [3] turned out to be 196 mg/kg; in [4] (Mus musculus, 1 h, oral), 84 mg/kg; in [5] (Mus musculus, 4 h, oral), 235 mg/kg; in assay [6], 4.3 mg/kg. Further, the “ED50, AA ear edema” value in [4] (topical) worked out at 0.1 mg/ear. Besides, the “ED50, TPA ear edema” value in assay [5] (topical) was found to be 0.6 mg/ear. Besides, the “Mean No. of Writhes” value in [7] stood at 2.2. For the same molecule, in [8], the “inhibition of cyclooxygenase activity” value was “inhibitors of both cyclooxygenase and lipoxygenase activity”. Moreover, the “inhibition of lipoxygenase activity” value in assay [9] was “inhibitors of both cyclooxygenase and lipoxygenase activity”.

Broadly, the ED50 is the midpoint of the dose-response relation.
